Data published in the supplement of paper PMC10307832.

Each cell line was assayed with Cc1ccccc1C(C(=O)NC1CCCCC1)N(C(=O)Cn1ccnc1C)c1cccc(F)c1 [IDH-C35] + CC(=O)c1c(C)c2cnc(Nc3ccc(N4CCNCC4)cn3)nc2n(C2CCCC2)c1=O [Palbociclib] (partner 0.5 µM) (assay: relative viability (nuclei count vs DMSO), 5 days (fraction); higher = more cells survive). Conditions: first compound 0.08 µM.
In short: (§1)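 Nuclei were stained with Hoechst during a one-step fixation (final 0.05% Triton X-100, 1% formaldehyde, 1 ug/ml Hoechst) carried out 5 days after dosing, then counted on 4× images. The cells, lung cancer lines in 1536-well plates, had been dosed by pin tool the day after seeding with one drug alone or a fixed anchor-drug dose plus five library-drug doses (not always all listed) in √10 steps. Relative viability is the nuclei count in treated wells divided by that in vehicle wells, and each value is the median of duplicate plates.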

Cell Line	relative viability
LC-2-ad	0.527
NCI-H1944	0.376
NCI-H1975	0.642
RERF-LC-KJ	1.08
ABC-1	0.765
NCI-H358	0.134
NCI-H650	0.311
PC-3 [JPC-3]	0.563

Same assay, conditions: first compound 0.253 µM

Cell Line	relative viability
LC-2-ad	0.476
NCI-H1944	0.345
NCI-H1975	0.653
RERF-LC-KJ	1.03
ABC-1	0.819
NCI-H358	0.131
NCI-H650	0.343
PC-3 [JPC-3]	0.532

Same assay, conditions: first compound 0.8 µM

Cell Line	relative viability
LC-2-ad	0.531
NCI-H1944	0.338
NCI-H1975	0.606
RERF-LC-KJ	0.991
ABC-1	0.491
NCI-H358	0.146
NCI-H650	0.339
PC-3 [JPC-3]	0.558

Same assay, conditions: first compound 2.53 µM

Cell Line	relative viability
LC-2-ad	0.49
NCI-H1944	0.317
NCI-H1975	0.67
RERF-LC-KJ	1.1
ABC-1	0.785
NCI-H358	0.148
PC-3 [JPC-3]	0.587

Same assay, conditions: first compound 8 µM

Cell Line	relative viability
LC-2-ad	0.494
NCI-H1944	0.323
NCI-H1975	0.56
RERF-LC-KJ	1.09
ABC-1	0.824
NCI-H358	0.123
NCI-H650	0.283
PC-3 [JPC-3]	0.534

What follows are cell lines tested with Cc1ccccc1C(C(=O)NC1CCCCC1)N(C(=O)Cn1ccnc1C)c1cccc(F)c1 [IDH-C35] + O=C(c1cc(Cc2n[nH]c(=O)c3ccccc23)ccc1F)N1CCN(C(=O)C2CC2)CC1 [Olaparib] (partner 8 µM) in the same assay as above. Conditions: first compound 0.08 µM.
In short: as §1

Cell Line	relative viability
LC-2-ad	0.728
NCI-H1944	0.402
NCI-H1975	0.809
RERF-LC-KJ	0.853
ABC-1	0.668
NCI-H358	0.57
NCI-H650	0.334
PC-3 [JPC-3]	1.15

Same assay, conditions: first compound 0.253 µM

Cell Line	relative viability
LC-2-ad	0.707
NCI-H1944	0.429
NCI-H1975	0.805
RERF-LC-KJ	0.896
ABC-1	1.04
NCI-H358	0.491
NCI-H650	0.393
PC-3 [JPC-3]	1.11

Same assay, conditions: first compound 0.8 µM

Cell Line	relative viability
LC-2-ad	0.715
NCI-H1944	0.451
NCI-H1975	0.815
RERF-LC-KJ	0.963
ABC-1	0.77
NCI-H358	0.549
NCI-H650	0.366
PC-3 [JPC-3]	1.2

Same assay, conditions: first compound 2.53 µM

Cell Line	relative viability
LC-2-ad	0.729
NCI-H1944	0.391
NCI-H1975	0.8
RERF-LC-KJ	0.985
ABC-1	0.819
NCI-H358	0.575
PC-3 [JPC-3]	1.07

Same assay, conditions: first compound 8 µM

Cell Line	relative viability
LC-2-ad	0.702
NCI-H1944	0.407
NCI-H1975	0.735
RERF-LC-KJ	0.869
ABC-1	0.906
NCI-H358	0.554
NCI-H650	0.376
PC-3 [JPC-3]	1.06
